In patent publication US20120165331A1, “Di/tri-aza-spiro-C9-C11alkanes” (priority 2010, published 2012) one finds Ki, Kd and inhibition data, which are given here for 20 molecules.

The pKi is −log10 of the Ki, conventionally taken in molar units. The term pKd denotes the negative decadic logarithm of the Kd, by convention in mol/L. As usually defined, the inhibition is the relative decrease from the control value, in per cent.

pKd, pKi: −log10 of the molar value.

Assay [1] has as its target T1, human orexin 2 receptor (Homo sapiens, UniProt O43614).
T1 construct: expressed in transfected cells
T1 sequence (O43614 1-444): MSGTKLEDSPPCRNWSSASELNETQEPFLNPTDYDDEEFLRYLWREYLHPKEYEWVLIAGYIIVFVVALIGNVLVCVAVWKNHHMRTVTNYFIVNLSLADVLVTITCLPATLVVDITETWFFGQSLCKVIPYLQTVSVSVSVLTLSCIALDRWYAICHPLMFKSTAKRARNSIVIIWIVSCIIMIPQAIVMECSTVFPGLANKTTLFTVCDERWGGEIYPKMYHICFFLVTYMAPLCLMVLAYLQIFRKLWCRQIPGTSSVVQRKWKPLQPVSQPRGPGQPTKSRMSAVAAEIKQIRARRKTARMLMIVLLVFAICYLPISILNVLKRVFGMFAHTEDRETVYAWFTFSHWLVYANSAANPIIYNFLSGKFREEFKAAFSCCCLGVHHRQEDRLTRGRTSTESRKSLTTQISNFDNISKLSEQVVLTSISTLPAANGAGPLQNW
In words: Calcium accumulation in cells (FLIPR), antagonism of orexin A, human orexin 2 receptor. The format is cell-based. Particulars: for pKi: calcium accumulation, antagonism of orexin A, Cheng-Prusoff corrected, read-out: FLIPR hOx2R Ki.

The target in assay [2] is T2, human orexin 1 receptor (Homo sapiens, UniProt O43613).
T2 construct: expressed in transfected cells
T2 sequence (O43613 1-425): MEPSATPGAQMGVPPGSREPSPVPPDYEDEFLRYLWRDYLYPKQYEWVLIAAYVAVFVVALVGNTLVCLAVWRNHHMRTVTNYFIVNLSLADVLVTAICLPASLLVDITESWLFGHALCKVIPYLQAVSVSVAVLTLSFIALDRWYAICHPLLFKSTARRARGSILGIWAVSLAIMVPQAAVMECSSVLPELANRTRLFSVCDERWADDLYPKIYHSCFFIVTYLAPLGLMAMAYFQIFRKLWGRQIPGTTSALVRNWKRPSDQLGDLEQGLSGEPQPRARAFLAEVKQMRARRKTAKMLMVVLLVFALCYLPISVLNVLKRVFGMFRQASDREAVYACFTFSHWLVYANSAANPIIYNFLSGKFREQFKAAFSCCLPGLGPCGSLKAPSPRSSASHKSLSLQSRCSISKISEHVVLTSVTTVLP
In words: Calcium accumulation in cells (FLIPR), antagonism of orexin A, human orexin 1 receptor. The format is cell-based. Conditions: for pKi: calcium accumulation, antagonism of orexin A, Cheng-Prusoff corrected, read-out: FLIPR hOx1R Ki; for inhibition at 10 µM: measured at a concentration of 10 μM of compound, read-out: FLIPR hOx1R % inhibition.

Assay [3] addresses T1, human orexin 2 receptor. In words: Radioligand binding assay ([3H]-SB649868 competition), human orexin 2 receptor. Conditions: radioligand [3H]-SB649868; read-out: Binding hOx2R Kd. The protocol: (§1) Radioligand Binding Assay
(§2) For crude cell membrane preparations, cells (CHO, Chinese hamster ovary or HEK, human embryonic kidney) expressing human orexin 1 or human orexin 2 receptors, were washed with HEPES (10 mM, pH 7.5), scraped off the culture plates with the same buffer, and centrifuged at 4° C. for 5 min at 2500×g. The cell pellet was either stored at −80° C. or used directly. Before the experiments, cell membranes were re-suspended in binding assay buffer (10 mM HEPES, 0.5% (w/v) bovine serum albumin, pH 7.5) by homogenisation with a Polytron homogeniser at 50 Hz for 20 s. Cell membranes were also used as made available by commercial providers.
(§3) Bound radioactivity was measured, and data were analysed with the program XLFIT or Graphpad Prism. Protein concentration was determined according to the Bradford/BioRad Protein Assay Kit.
(§4) In competition experiments, cell homogenates (150 μl) were incubated in assay buffer (10 mM HEPES, pH 7.5, 0.5% (w/v) bovine serum albumin, 5 mM MgCl2, 1 mMCaCl2, and tween 0.05%) for 1 h at room temperature with about 1 nM of the radioligand [^3H]-SB649868, 66 Ci/mmole, 50 μl), and with various concentrations of compounds of the invention (50 μl) in triplicates; non-specific binding was determined in the presence of almorexant (10 μM). Reactions were terminated by vacuum filtration, 3 washes of ice cold wash buffer (Tris-HCl pH 7.4/10 mM, with NaCl 154 mM). Competition data is expressed in Table 1 as Kd [μM].

Assay [4] has as its target T2, human orexin 1 receptor. In words: Radioligand binding assay ([3H]-SB649868 competition), human orexin 1 receptor. Particulars: radioligand [3H]-SB649868; read-out: Binding hOx1R Kd. The method, then: as §1, §2, §3, §4

As to `COc1cc(C)nc(N2CC[C@]3(CCCN(Cc4c[nH]c5ccccc45)C3=O)C2)n1` (single isomer, unassigned) [Example 7.9], the negative-log Ki (pKi) at human orexin 2 receptor [1] was 8.72; on human orexin 1 receptor [2] it was 8.00. For the same molecule, the pKd at human orexin 2 receptor [3] and at human orexin 1 receptor [4] was 7.92 throughout.

As for `COc1cc(C)nc(N2CC[C@@]3(CCCN(Cc4c[nH]c5ccccc45)C3=O)C2)n1` (single isomer, unassigned) [Example 7.10], the pKi is 7.85 on human orexin 2 receptor [1] and 6.86 at human orexin 1 receptor [2]. Further, the pKd at human orexin 2 receptor [3] is 6.62; at human orexin 1 receptor [4] it was 6.12.

In the case of `Cc1cc(C)nc(N2CCC3(CC2)NCCN(Cc2c[nH]c4ccc(F)cc24)C3=O)n1` [Example 1.4, 9-(4,6-Dimethylpyrimidin-2-yl)-4-((5-fluoro-1H-indol-3-yl)methyl)-1,4,9-triazaspiro[5.5]undecan-5-one], the pKi at human orexin 2 receptor [1] was 8.22; on human orexin 1 receptor [2], 6.22. Further, the figures for the pKd on human orexin 2 receptor [3] and at human orexin 1 receptor [4] were 7.77 and 6.11, respectively.

Take `COc1cccc(-c2nn(C)nc2CN2CCNC3(CCN(c4nc(C)cc(C)n4)CC3)C2=O)c1` [Example 1.5, 9-(4,6-Dimethylpyrimidin-2-yl)-4-((5-(3-methoxyphenyl)-2-methyl-2H-1,2,3-triazol-4-yl)methyl)-1,4,9-triazaspiro[5.5] undecan-5-one]: the pKi on human orexin 2 receptor [1] is 8.15; at human orexin 1 receptor [2], 5.83. Moreover, the pKd is 7.51 at human orexin 2 receptor [3] and 6.03 at human orexin 1 receptor [4].

With `COc1cc(C)nc(N2CCC3(CC2)NCCN(Cc2c[nH]c4ccccc24)C3=O)n1` [Example 1.8, 4-((1H-Indol-3-yl)methyl)-9-(4-methoxy-6-methylpyrimidin-2-yl)-1,4,9-triazaspiro[5.5] undecan-5-one], the negative logarithm of the Ki (pKi) at human orexin 2 receptor [1] was 8.10; on human orexin 1 receptor [2], 6.04. The pKd is 7.72 at human orexin 2 receptor [3] and 6.17 at human orexin 1 receptor [4].

For `COc1cccc(-c2ocnc2CN2CCNC3(CCN(c4nc(C)cc(C)n4)CC3)C2=O)c1` [Example 1.9, 9-(4,6-Dimethylpyrimidin-2-yl)-4-((5-(3-methoxyphenyl)oxazol-4-yl)methyl)-1,4,9-triazaspiro[5.5] undecan-5-one], the pKi was 8.40 on human orexin 2 receptor [1] and 6.64 on human orexin 1 receptor [2]. Also, the negative-log Kd (pKd) at human orexin 2 receptor [3] was 7.60; at human orexin 1 receptor [4] it was 6.40.

Take `COc1cccc(-c2oc(C)nc2CN2CCNC3(CCN(c4nc(C)cc(C#N)n4)CC3)C2=O)c1` [Example 1.16, 2-(4-((5-(3-Methoxyphenyl)-2-methyloxazol-4-yl)methyl)-5-oxo-1,4,9-triazaspiro[5.5]undecan-9-yl)-6-methylpyrimidine-4-carbonitrile]: at human orexin 2 receptor [1], the pKi was 7.51. Moreover, the inhibition at 10 µM at human orexin 1 receptor [2] was found to be 35%. At human orexin 2 receptor [3], the pKd was 6.73.

Take `COc1cccc(-c2sc(C)nc2CN2CCNC3(CCN(c4nc(C)cc(C#N)n4)CC3)C2=O)c1` [Example 1.25, 2-(4-((5-(3-Methoxyphenyl)-2-methylthiazol-4-yl)methyl)-5-oxo-1,4,9-triazaspiro[5.5]undecan-9-yl)-6-methylpyrimidine-4-carbonitrile]: the pKi at human orexin 2 receptor [1] is 7.12. The inhibition at 10 µM on human orexin 1 receptor [2] turned out to be 31%. Further, the negative-log Kd (pKd) at human orexin 2 receptor [3] was 6.40.

As to `COc1cncc(-c2cn(C)nc2CN2CCNC3(CCN(c4nc(C)cc(C)n4)CC3)C2=O)c1` [Example 1.55, 9-(4,6-Dimethyl-pyrimidin-2-yl)-4-((4-(5-methoxypyridin-3-yl)-1-methyl-1H-pyrazol-3-yl)methyl)-1,4,9-triazaspiro[5.5] undecan-5-one], the pKi on human orexin 2 receptor [1] is 7.80. In addition, the figures for the pKd on human orexin 2 receptor [3] and on human orexin 1 receptor [4] were 6.79 and 5.23, respectively.

Turning to `COCc1noc(-c2ccccc2CN2CCNC3(CCN(c4nc(C)cc(C)n4)CC3)C2=O)n1` [Example 1.63, 9-(4,6-dimethyl-pyrimidin-2-yl)-4-(2-(3-(methoxymethyl)-1,2,4-oxadiazol-5-yl)benzyl)-1,4,9-triazaspiro[5.5] undecan-5-one], the pKi at human orexin 2 receptor [1] was 7.34; at human orexin 1 receptor [2], 5.39. Further, at human orexin 2 receptor [3], the pKd is 6.60.

Take `COCc1cccc(-c2nn(C)nc2CN2CCNC3(CCN(c4nc(C)cc(C)n4)CC3)C2=O)c1` [Example 1.76, 9-(4,6-dimethyl-pyrimidin-2-yl)-4-((5-(3-(methoxy-methyl)phenyl)-2-methyl-2H-1,2,3-triazol-4-yl)methyl)-1,4,9-triazaspiro[5.5] undecan-5-one]: the pKi was 7.07 at human orexin 2 receptor [1] and 5.79 on human orexin 1 receptor [2]. For the same molecule, on human orexin 2 receptor [3], the pKd was 6.76.

`Cc1cc(C)nc(N2CCC3(CC2)OCCN(Cc2n[nH]nc2-c2ccccc2)C3=O)n1` [Example 2.14, 9-(4,6-Dimethylpyrimidin-2-yl)-4-((5-phenyl-2H-1,2,3-triazol-4-yl)methyl)-1-oxa-4,9-diazaspiro[5.5]undecan-5-one]: the pKi at human orexin 2 receptor [1] was 7.30; on human orexin 1 receptor [2], 5.57. For the same molecule, the negative-log Kd (pKd) on human orexin 2 receptor [3] was 6.62.

Take `Cc1cc(C)nc(N2CCC3(CCN(Cc4c[nH]c5ccccc45)C3=O)CC2)n1` [Example 3.1, 2-((1H-Indol-3-yl)methyl)-8-(4,6-dimethylpyrimidin-2-yl)-2,8-diazaspiro[4.5]decan-1-one]: the pKi is 7.49 at human orexin 2 receptor [1] and 5.72 on human orexin 1 receptor [2]. Further, the pKd on human orexin 2 receptor [3] was 6.64.

Turning to `COc1cc(C)nc(N2CCC3(CCN(Cc4c[nH]c5ccccc45)C3=O)CC2)n1` [Example 3.18, 2-(1H-Indol-3-ylmethyl)-8-(4-methoxy-6-methyl-pyrimidin-2-yl)-2,8-diaza-spiro[4.5]decan-1-one], the pKi is 7.43 at human orexin 2 receptor [1] and 5.91 on human orexin 1 receptor [2]. On human orexin 2 receptor [3], the pKd was 5.99.

`COc1cc(C)nc(N2CCC3(CCN(Cc4n[nH]c5ccccc45)C3=O)CC2)n1` [Example 3.21, 2-((1H-indazol-3-yl)methyl)-8-(4-methoxy-6-methylpyrimidin-2-yl)-2,8-diazaspiro[4.5]decan-1-one]: the results for the pKi on human orexin 2 receptor [1] and at human orexin 1 receptor [2] were 6.93 and 6.00, respectively. Moreover, the pKd at human orexin 2 receptor [3] was 6.16.

In the case of `O=C1OCC2(CCN(c3cnc4ccccc4n3)CC2)N1Cc1c[nH]c2ccccc12` [Example 8.21], on human orexin 2 receptor [1], the pKi was 6.32. Besides, at human orexin 1 receptor [2], the inhibition at 10 µM was found to be 33%.

On to `Cc1cncc(N2CCC3(CC2)COC(=O)N3Cc2c[nH]c3ccccc23)n1` [Example 8.23, 1-((1H-Indol-3-yl)methyl)-8-(6-methylpyrazin-2-yl)-3-oxa-1,8-diazaspiro[4.5]decan-2-one], for which the inhibition at 10 µM at human orexin 2 receptor [1] (measured at a concentration of 10 μM of compound, read-out: FLIPR hOx2R % inhibition) is 20%; at human orexin 1 receptor [2], less than 10%.

For `Cc1cc(C)nc(N2CCC3(CC2)COC(=O)N3Cc2c[nH]c3ccccc23)n1` [Example 8.24, 1-((1H-Indol-3-yl)methyl)-8-(4,6-dimethylpyrimidin-2-yl)-3-oxa-1,8-diazaspiro[4.5]decan-2-one], the pKi at human orexin 2 receptor [1] was 6.35. Besides, the inhibition at 10 µM at human orexin 1 receptor [2] was 21%.

For `Cc1cncc(N2CCC3(CC2)COC(=O)N3Cc2cccc3[nH]ccc23)n1` [Example 8.25, 1-((1H-Indol-4-yl)methyl)-8-(6-methylpyrazin-2-yl)-3-oxa-1,8-diazaspiro[4.5]decan-2-one], the pKi at human orexin 2 receptor [1] was 6.17. Also, at human orexin 1 receptor [2], the inhibition at 10 µM was less than 10%.

Turning to `O=C1CCC2(CCN(c3cnc4ccccc4n3)C2)N1Cc1cccc2[nH]ccc12` (stereo not shown) [Example 9.1], the pKi on human orexin 2 receptor [1] was 5.86; at human orexin 1 receptor [2], 6.18.
